In patent EP0554400B1, “RETROVIRAL PROTEASE INHIBITORS” (MONSANTO COMPANY, priority 1990, dated 1992) one finds IC50, CC50 and EC50 data, which are given here for 4 molecules.

In data set [1] the target is T1, HIV protease (Human immunodeficiency virus type 1 group M subtype B, UniProt P04585).
T1 construct: HIV protease is diluted in the assay buffer to a final enzyme concentration of 12.3 nanomolar, based on a molecular weight of 10,780
Briefly: HIV protease enzyme assay (fluorogenic substrate 2-aminobenzoyl-Ile-Nle-Phe(p-NO2)-Gln-ArgNH2). The format is biochemical. From the text: The compounds of the present invention are effective HIV protease inhibitors. Utilizing an enzyme assay as described below, the compounds set forth in the examples herein disclosed inhibited the HIV enzyme. The preferred compounds of the present invention and their calculated IC50 (inhibiting concentration 50%, i.e., the concentration at which the inhibitor compound reduces enzyme activity by 50%) values are shown in Table 6. The enzyme method is described below. The substrate is 2-aminobenzoyl-Ile-Nle-Phe(p-NO2)-Gln-ArgNH2. The positive control is MVT-101 (Miller, M. et al, Science, 246, 1149 (1989)] The assay conditions are as follows: Assay buffer: • 20 mM sodium phosphate, pH 6.4 • 20% glycerol • 1 mM EDTA • 1 mM DTT • 0.1% CHAPS
The above described substrate is dissolved in DMSO, then diluted 10 fold in assay buffer. Final substrate concentration in the assay is 80 µM.
HIV protease is diluted in the assay buffer to a final enzyme concentration of 12.3 nanomolar, based on a molecular weight of 10,780.
The final concentration of DMSO is 14% and the final concentration of glycerol is 18%. The test compound is dissolved in DMSO and diluted in DMSO to 10x the test concentration; 10 µl of the enzyme preparation is added, the materials mixed and then the mixture is incubated at ambient temperature for 15 minutes. The enzyme reaction is initiated by the addition of 40µl of substrate. The increase in fluorescence is monitored at 4 time points (0, 8, 16 and 24 minutes) at ambient temperature. Each assay is carried out in duplicate wells.

Data set [2] relates to CEM cells. Description: Intrinsic toxicity of test compound in uninfected CEM cells (MTT). In kind it is cell-based. The settings on record: Table 7, CEM cells without virus, 7 days, read-out: TD50 (the source's name). The text has this: (§1) Methods 20, 309-321 (1988).
In data set [3] the test system is HIV-1. Description: HIV inhibition assay of acutely infected CEM cells (tetrazolium/MTT colorimetric). The format is cell-based. To be noted: Table 7, CEM cells acutely infected with HIV-1, 7 days, MTT. The procedure:
The effectiveness of the compounds listed in Table 7 were determined in the above-described enzyme assay and in a CEM cell assay.
as §1

Where [4] appears, read: Table 6, 80 µM substrate, 12.3 nanomolar enzyme, pH 6.4.
Setting [5] is: Table 7, above-described enzyme assay.

In the case of “Phenylmethylamide, N-[3-[[[(1,1-dimethylethyl)amino]carbonyl](3-methylbutyl)amino]-2-hydroxy-1-(phenylmethyl)propyl]-3,3-dimethyl-, [1S-[1R*,2S*]]”, the half-inhibitory concentration (IC50) in data set [1] (setting [4]) and in data set [1] (setting [5]) was 850 nM each time.
Consider `CC(C)CCN(C[C@@H](O)[C@H](Cc1ccccc1)NC(=O)OCc1ccccc1)C(=O)NC(C)(C)C` (relative stereo) [Carbamic acid, [3-[[[(1,1-dimethylethyl)amino]carbonyl](3-methylbutyl)amino]-2-hydroxy-1-(phenylmethyl)propyl]-, phenylmethyl ester, [1S-[1R*,2S*]]], for which, in data set [1] (setting [4]), the IC50 was 112 nM.
Take `CC(C)C[C@H](NC(=O)[C@@H](N)Cc1ccccc1)C(=O)NC(=O)NC[C@H](O)[C@H](Cc1ccccc1)NC(=O)OC(C)(C)C` [(2S,3S)-3-(N-1,1-dimethylethoxycarbonyl)amido-1-(L-phenylalanyl-L-leucylcarbamoyl)amino-4-phenyl butanol]: the CC50 in data set [2] amounted to 54000 nM. The IC50 in data set [1] (setting [4]) and in data set [1] (setting [5]) was 5000 nM in each case. Further, in data set [3], the EC50 amounted to 13000 nM.
With `COc1ccc(COC(=O)N[C@@H](Cc2ccccc2)[C@H](O)CN(CCC(C)C)C(=O)NC(C)(C)C)cc1` (relative stereo) [Carbamic acid, [3-[[[(1,1-dimethylethyl)amino]carbonyl](3-methylbutyl)amino]-2-hydroxy-1-(phenylmethyl)propyl]-, (4-methoxyphenyl)methyl ester, [1S-[1R*,2S*]]], the IC50 in data set [1] (setting [4]) worked out at 489 nM. Moreover, in data set [3] (Human immunodeficiency virus 1, CCRF-CEM, 168 h), a half-maximal response (EC50) required 820 nM.
